Data taken from patent publication US12404526B2, “Enhancing agents for improved cell transfection and/or rAAV vector production” (priority 2017, dated 2025).

Tested on: HEK 293F cells
Assay: rAAV-FVIII vector production by PEI-transfected HEK 293F cells with enhancing agents, vector genome titer by Q-PCR
Type: cell-based, human
Protocol: Cell Culture: FreeStyle™ 293F (HEK 293F) cells purchased from Thermo Fisher Scientific (R79007) were cultured in FreeStyle™ F17 (F17) expression medium (Thermo Fisher Scientific, A1383501) supplemented with 1× GlutaMAX™ (Thermo Fisher Scientific, 35050-061) and 1× Antibiotic-antimycotic (Thermo Fisher Scientific, 15240). Cells were cultured in spinner flasks (Corning, 3152 or 3153), shake flask (Corning 431143, or 431145) or bioreactors. For spinner/shake flask, cells were cultured at 37° C. incubator with 170 rpm agitation and a humidified atmosphere of 8% CO2; for bioreactors (Eppendorf, DASGIP Parallel Bioreactor system, glass vessels and single use vessels), cell culture was controlled by programed parameters, (DO 40%, pH 7.2, agitation at 130 rpm, 150 rpm or 170 rpm). Typically, cells were seeded at 0.25-0.5×10^6/mL, subcultured every 2-3 days by adding fresh cell culture medium when cell density reached approximately 2-3×10^6/mL. Cell density and viability were determined using a Vi-cell™ XR cell viability Analyzer (Beckman Coulter).
Plasmids: Three plasmids were used to produce recombinant adeno-associated viral vectors (rAAV): 1) Transgene plasmid containing hFVIII flanked by ITRs, 2) A packaging plasmid containing rep and cap genes, 3) An adenoviral helper plasmid containing adenovirus E2, E4 and VARNA genes. All plasmids were purchased from and manufactured by Aldevron.
Preparation of PEI solutions: Linear polyethylenimine (PEI) “Max” 40 KDa (Polysciences, 24765-2, hydrochloride salt of the linear PEI 25 KDa) was used as transfection reagent. For transfection optimization studies, PEI “Max” was dissolved in 5 mM Tris to make a 0.5 mg/mL solution and the solution was adjusted to different pH, including pH7.0, 7.1, 7.2, 7.3, 7.4, 7.6, 7.8, or 8.0. After several studies, PEI solution at pH 7.1 was selected for all studies if not specified because of the best transfection and rAAV production.
Using enhancing agents in PEI-mediated transfection: The potential transfection enhancing agents evaluated for their effect on transfection and rAAV production were enhancer 1 and 2 in ExpiFectamine™ 293 Transfection Kit (Thermo Fisher Scientific, A14525), P3000 reagent in Lipofectamine® 3000 Transfection Kit (Thermo Fisher Scientific, L3000015), enhancer in Effectene™ Transfection Reagent Kit (Qiagen, 301427). Also studied were a variety of compounds including valproic acid, etoposide, teniposide, siomycin A and vorinostat to test their effectiveness on PEI cell transfection and rAAV production.
HEK 293F cells were grown in F17 medium plus 1× GlutaMAX™ Supplement and 1× Antibiotic-antimycotic in spinner flasks or shake flasks. The day before transfection, cells were seeded at 0.5-2×10^6 cells/mL by adding fresh medium. After 24 hr, cells were transfected at a cell density of 1-4×10^6 cells/mL. Three plasmids for transfection, hFVIII, Rep/cap, Ad2 helper, were used at a molar ratio of 1:1:1, 0.5:1:1 and 1:2:2, and at weight ratio of 0.75:0.75:0.75, 1:1:1 and 1.5:1.5:1.5. The total DNA amount used for transfection was from 0.5 to 4.2 μg per mL of cell culture volume. PEI/DNA complex was prepared with different weight ratios of PEI and DNA, at 1:1, 1.5:1, 2:1, 2.5:1 and 3:1, incubated at room temperature for 1, 5, 10, 15, 20, 25 and 30 minutes, then the DNA/PEI complexes were added to the cell culture. Free PEI (without DNA) from 0.5 to 5.6 μg/mL was added to the cell culture immediately after DNA/PEI complexes. Enhancing agents were added directly to the cells at the time of transfection or 24 hr before transfection or 16-18 hr after transfection. Different amounts of enhancing agents were studied. Samples, including cells and cell culture media, were taken at 48 and 72 hr post transfection for cell count and cell viability and cell culture was harvested at 72 hr post transfection. […]

SMILES: CCCC(CCC)C(=O)O [valproic acid]
- rAAV vector production, fold higher than in the absence of valproic acid (2 mM at transfection, spinner flask, 1.2 μg/mL DNA, PEI/DNA 2:1, 1.5 μg/mL free PEI, FIG. 7): 10 fold
- AAV vector production at increased valproic acid concentrations (1L bioreactor culture, 4 mM or higher, such as 5-8 mM, FIG. 8): improved
- AAV vector production, fold higher compared with 2 mM of valproic acid (>4 mM (up to 8 mM) at transfection, 1 L bioreactor, PEI/DNA 2.5, FIG. 8): 1.2-1.8 fold
- effect on rAAV productivity (compound screen) (added at transfection, PEI-mediated transfection): significantly increased
- rAAV-FVIII vector titer, fold increase compared to that without any enhancers (optimized PEI-mediated transfection, serum-free suspension culture, 0.25-10 mM tested, FIG. 7): around 10 fold
- rAAV productivity level compared with enhancer 1 and 2 (optimized PEI-mediated transfection, serum-free suspension culture, FIG. 7): same rAAV productivity level or higher
- rAAV vector productivity, fold higher than the currently reported production protocol using similar technologies (used alone in the optimized PEI-based transfection method): about 10 fold
